Reference: ChEMBL document CHEMBL1817565, “Synthesis and antimalarial evaluation of novel benzopyrano[4,3-b]benzopyran derivatives” (Bioorg Med Chem, 2011)

Experiments:
Plasmodium falciparum = assay: Antimalarial activity against chloroquine-sensitive Plasmodium falciparum 3D7 infected in erythrocytes assessed as [3H] incorporation after 48 hrs by scintillation counter; format: functional, organism-based
[1] = Cytotoxicity against human NFF cells at 50 uM after 3 days by sulforhodamine B assay; format: cell-based; conditions: read-out: INH
[2] = Selectivity ratio of cytotoxicity against human NFF cells to IC50 for Plasmodium falciparum 3D7; format: cell-based

Compound	IC50 (Plasmodium falciparum) [µM]	cytotoxicity at 72 h, 50 µM [1] [%]	selectivity ratio [2]
COc1cc(OC)c2c(c1OC)O[C@H]1c3c(OC)cc(OC)c(OC)c3O[C@H](c3ccc(Br)cc3)[C@H]1[C@@H]2/C=C/c1ccc(Br)cc1	2.9	46.3	10
COc1cc(OC)c2c(c1OC)O[C@H]1c3c(OC)cc(OC)c(OC)c3O[C@H](c3ccc(Cl)cc3)[C@H]1[C@@H]2/C=C/c1ccc(Cl)cc1	3.3	98.4	–
COc1ccc(/C=C/[C@@H]2c3c(OC)cc(OC)c(OC)c3O[C@H]3c4c(OC)cc(OC)c(OC)c4O[C@H](c4ccc(OC)cc4)[C@@H]23)cc1	3.2	43.2	10
COc1cc(OC)c2c(c1OC)O[C@H]1c3c(OC)cc(OC)c(OC)c3O[C@H](c3ccc(C)cc3)[C@H]1[C@@H]2/C=C/c1ccc(C)cc1	1.9	47.2	10
COc1cc(OC)c2c(c1OC)O[C@H]1c3c(OC)cc(OC)c(OC)c3O[C@H](c3ccccc3)[C@H]1[C@@H]2/C=C/c1ccccc1 [DEPENDENSIN]	3.9	46.9	10
